Experimental data: ChEMBL document CHEMBL5608174, “Synthesis and biological evaluation of 4-phenyl-5-quinolinyl substituted isoxazole analogues as potent cytotoxic and tubulin polymerization inhibitors against ESCC” (Eur J Med Chem, 2024)

Key:
MGC-803 = assay: Antiproliferative activity against human MGC-803 cells assessed as inhibition of cell proliferation incubated for 48 hrs by MTT assay; type: functional, cell-based; settings: MGC-803, 48 h
KYSE-30 = assay: cells; settings: Homo sapiens, KYSE-30, 48 h
Description: Antiproliferative activity against human KYSE-30 cells assessed as inhibition of cell proliferation incubated for 48 hrs by MTT assay

HCT-116 = assay: cells; settings: Homo sapiens, HCT-116, 48 h
Description: Antiproliferative activity against human HCT-116 cells assessed as inhibition of cell proliferation incubated for 48 hrs by MTT assay

[1] = Cytotoxicity against HUVEC cells assessed as inhibition of cell growth incubated for 48 hrs by MTT assay; type: toxicity, cell-based; settings: human
[2] = Toxicity in female BALB/c-nu nude mouse xenografted with human KYSE-30 cells assessed as effect on body weight at 6 to 12 mg/kg, ip administered for 15 days; type: organism-based; settings: in vivo, 360 h, dose 6-12 mg/kg, time 15 day

IC50 (MGC-803) [nM] | IC50 (KYSE-30) [nM] | IC50 (HCT-116) [nM] | Structure (SMILES) | IC50 at 48 h [1] [nM] | Activity [2]
> 10000 | > 10000 | > 10000 | COc1ccccc1-c1cn[nH]c1-c1ccnc2ccccc12 | – | –
2530 | 4570 | 5420 | COc1cccc(-c2cnoc2-c2ccnc3ccccc23)c1 | – | –
> 10000 | > 10000 | > 10000 | Cc1cccc(-c2nn[nH]c2-c2ccnc3ccccc23)c1 | – | –
> 10000 | > 10000 | > 10000 | COc1cccc(-c2[nH]nnc2-c2ccnc3ccccc23)c1 | – | –
> 10000 | > 10000 | > 10000 | c1ccc2c(-c3[nH]nnc3-c3ccc4[nH]c5ccccc5c4c3)ccnc2c1 | – | –
> 10000 | > 10000 | > 10000 | COc1ccccc1-c1[nH]nnc1-c1ccnc2ccccc12 | – | –
3360 | 244 | 705 | CC(C)Oc1ccc(-c2nn[nH]c2-c2ccnc3ccccc23)cc1 | – | –
> 10000 | > 10000 | > 10000 | c1ccc2c(-c3[nH]nnc3-c3ccc4sc5ccccc5c4c3)ccnc2c1 | – | –
> 10000 | > 10000 | > 10000 | c1ccc2c(-c3[nH]nnc3-c3ccc4sccc4c3)ccnc2c1 | – | –
188 | 178 | 211 | c1ccc2c(-c3[nH]nnc3-c3ccc4[nH]ccc4c3)ccnc2c1 | – | –
> 10000 | > 10000 | > 10000 | c1cc(-c2nn[nH]c2-c2ccnc3ccccc23)c2occc2c1 | – | –
8460 | 3400 | 7760 | c1ccc2c(-c3[nH]nnc3-c3ccc4occc4c3)ccnc2c1 | – | –
153 | 1350 | 773 | COc1ccc(-c2[nH]nnc2-c2ccnc3ccccc23)cc1 | – | –
32 | 21 | 24 | COc1ccc(-c2nn[nH]c2-c2ccnc3ccccc23)cc1O | – | –
> 10000 | > 10000 | > 10000 | Cc1ccccc1-c1nn[nH]c1-c1ccnc2ccccc12 | – | –
59 | 287 | 381 | CCOc1ccc(-c2[nH]nnc2-c2ccnc3ccccc23)cc1 | – | –
1540 | 3190 | 5530 | COc1cccc(-c2cn[nH]c2-c2ccnc3ccccc23)c1 | – | –
> 10000 | > 10000 | > 10000 | c1ccc2c(-c3[nH]nnc3-c3ccc4oc5ccccc5c4c3)ccnc2c1 | – | –
5690 | 6370 | > 10000 | c1ccc2c(-c3[nH]nnc3-c3ccc4c(c3)CCO4)ccnc2c1 | – | –
199 | 1020 | 958 | COc1ccc(-c2cn[nH]c2-c2ccnc3ccccc23)cc1 | – | –
4830 | > 10000 | > 10000 | CC(C)Oc1ccc(-c2cn[nH]c2-c2ccnc3ccccc23)cc1 | – | –
> 10000 | 10000 | > 10000 | c1ccc2c(-c3[nH]ncc3-c3ccc4c(c3)CCO4)ccnc2c1 | – | –
5800 | 1650 | 3680 | Cc1ccc(-c2nn[nH]c2-c2ccnc3ccccc23)cc1 | – | –

Further lines, the compound ahead of its results:

Structure (SMILES) | IC50 (MGC-803) [nM] | IC50 (KYSE-30) [nM] | IC50 (HCT-116) [nM] | IC50 at 48 h [1] [nM] | Activity [2]
COc1cccc(-c2cnoc2-c2cc(C)nc3ccccc23)c1 | 101 | 349 | 288 | – | –
COc1ccc(-c2cn[nH]c2-c2ccnc3ccccc23)cc1[N+](=O)[O-] | 1980 | > 2510 | > 10000 | – | –
COc1ccccc1-c1cn[nH]c1-c1cc(C)nc2ccccc12 | > 800 | > 800 | > 800 | – | –
CCCOc1ccc(-c2cnoc2-c2cc(C)nc3ccccc23)cc1 | 58 | > 800 | > 800 | – | –
CCCOc1ccc(-c2cn[nH]c2-c2ccnc3ccccc23)cc1 | 875 | 6410 | 6040 | – | –
CCOc1ccc(-c2cn[nH]c2-c2ccnc3ccccc23)cc1 | 249 | 3170 | 437 | – | –
COc1ccc(-c2cnoc2-c2cc(C)nc3ccccc23)cc1[N+](=O)[O-] | 65 | 103 | 54 | – | –
CCCOc1ccc(-c2cn[nH]c2-c2cc(C)nc3ccccc23)cc1 | 130 | > 800 | 90 | – | –
COc1cccc(-c2cn[nH]c2-c2cc(C)nc3ccccc23)c1 | 293 | 403 | 245 | – | –
c1ccc2c(-c3oncc3-c3ccc4c(c3)CCO4)ccnc2c1 | 2120 | 723 | > 10000 | – | –
Cc1cc(-c2oncc2-c2ccc3c(c2)CCO3)c2ccccc2n1 | 410 | > 800 | > 800 | – | –
CCOc1ccc(-c2cn[nH]c2-c2cc(C)nc3ccccc23)cc1 | 31 | 65 | 44 | > 710 | –
CCOc1ccc(-c2cnoc2-c2cc(C)nc3ccccc23)cc1 | 18 | 14 | > 800 | > 710 | Non-Toxic
COc1ccccc1-c1cnoc1-c1ccnc2ccccc12 | > 10000 | > 10000 | > 10000 | – | –
COc1ccc(-c2cnoc2-c2ccnc3ccccc23)cc1[N+](=O)[O-] | 28 | 194 | 2320 | – | –
Cc1cc(-c2oncc2-c2ccc(OC(C)C)cc2)c2ccccc2n1 | 49 | 226 | 133 | – | –
COc1ccc(-c2cnoc2-c2ccnc3ccccc23)cc1 | 24 | 354 | 982 | – | –
Cc1cc(-c2[nH]ncc2-c2ccc(OC(C)C)cc2)c2ccccc2n1 | 330 | > 800 | > 800 | – | –
COc1ccccc1-c1cnoc1-c1cc(C)nc2ccccc12 | 1960 | 7530 | 8580 | – | –
CCCOc1ccc(-c2cnoc2-c2ccnc3ccccc23)cc1 | 435 | 714 | 603 | – | –
CC(C)Oc1ccc(-c2cnoc2-c2ccnc3ccccc23)cc1 | 489 | 1510 | 4500 | – | –
COc1ccc(-c2cn[nH]c2-c2cc(C)nc3ccccc23)cc1 | 39 | 92 | 68 | > 710 | –
CCOc1ccc(-c2cnoc2-c2ccnc3ccccc23)cc1 | 14 | 122 | 39 | – | –
Cc1cc(-c2[nH]ncc2-c2ccc3c(c2)CCO3)c2ccccc2n1 | 3240 | 491 | 740 | – | –
